Results taken from ChEMBL document CHEMBL1145674, “Isolation and identification of "diazepam-like" compounds from bovine urine” (J Nat Prod, 1983).

Columns and labels:
Format in all cases: cell membranes
[1] = Displacement of [3H]diazepam from benzodiazepine receptor in rat cerebral cortex membrane
Rattus norvegicus [2] = species: Rattus norvegicus; assay: Increase in [3H]diazepam binding to benzodiazepine receptor in rat cerebral cortex membrane at 1 mM relative to control
Rattus norvegicus [3] = species: Rattus norvegicus; assay: Increase in [3H]diazepam binding to benzodiazepine receptor in rat cerebral cortex membrane at 0.5 mM relative to control

Row | SMILES | IC50 [1] [µM] | Activity (Rattus norvegicus [2]) [%] | Activity (Rattus norvegicus [3]) [%]
1 | Oc1ccc([C@H]2COc3cc(O)ccc3C2)cc1 [AUS-131] | 80 |  | 
2 | CN1C(=O)CN=C(c2ccccc2)c2cc(Cl)ccc21 [DIAZEPAM] | 0.005 |  | 
3 | NC(=O)c1cccnc1 [NIACINAMIDE] | 3900 |  | 
4 | O=c1[nH]cnc2nc[nH]c12 [HYPOXANTHINE] | 700 |  | 
5 | O=c1c(-c2cccc(O)c2)coc2cc(O)ccc12 | 140 |  | 
6 | O=c1[nH]cnc2c1ncn2[C@@H]1O[C@H](CO)[C@@H](O)[C@H]1O [INOSINE] | 900 |  | 
7 | COc1ccc(C2COc3cc(O)ccc3C2)cc1 (racemic) | 1500 |  | 
8 | COc1ccc2c(c1)OCC(c1ccc(O)cc1)C2 (racemic) | 1300 |  | 
9 | Oc1cccc(C2COc3cc(O)ccc3C2)c1 (racemic) | 45 |  | 
10 | COc1ccc(-c2coc3cc(O)ccc3c2=O)cc1 [FORMONONETIN] | 700 |  | 
11 | COc1ccc2c(=O)c(-c3ccc(O)cc3)coc2c1 [ISOFORMONENTIN] | 1100 |  | 
12 | Clc1ccc2[nH]c3ccccc3c2c1 |  | 172 | 143
